This note sets out measurements from US7915267B2, “Heterocyclic amide compound and use thereof” (Takeda Pharmaceutical Company Limited, priority 2005, dated 2011).

The structures appear in SMILES notation.

This test addresses T1, MMP-13 (Homo sapiens, UniProt P45452).
T1 construct: purchased GenzymeTechne
Nature of the test: MMP-13 inhibitory activity (fluorogenic substrate Cy3-PLGLK(Cy5Q)AR-NH2 enzyme assay). The settings on record: compound 1 μM; 37° C., 40 min; APMA-activated MMP-13 precursor; read-out: MMP-13 inhibitory rate (%) at 1 μM. The test is classed as biochemical. Here is the method: To 10 μg of MMP-13 precursor (GenzymeTechne) was added 1 ml of assay buffer (50 mM Tris-HCl (pH 7.5), 10 mM CaCl2, 150 mM NaCl, 0.05% Brij-35), and 4-aminophenylmercuric acid (Sigma) was added to the final concentration of 1 mM. The MMP-13 precursor was activated by incubating at 37° C. for 2 hr.
In a 96 well black plate (Corning), to 6.3 ng/ml of MMP-13 solution (49 μl) diluted with assay buffer was added the test compound (1 μl) diluted with dimethyl sulfoxide (DMSO) and 620 nM Cy3-PLGLK(Cy5Q)AR-NH2 (50 μl, synthesized by Amersham Biosciences) in assay buffer was added to start the enzyme reaction. After incubation at 37° C. for 40 min, 500 mM EDTA solution (6 μl) was added to stop the reaction. For measurement, Farcyte (Amersham Biosciences) was used to measure at excitation wavelength 535 nm and measurement wavelength 595 nm.
T: value of well with addition of DMSO instead of test compound
C: value of well with addition of DMSO instead of test compound and addition of EDTA solution before addition of substrate solution
X: value of well with addition of test compound
Turning to `N#Cc1ccc2nc(C(=O)NCc3cccc(OCCSc4nc[nH]n4)c3)[nH]c(=O)c2c1` [Example 2, 6-cyano-4-oxo-N-[(3-{[2-(1H-1,2,4-triazol-3-ylthio)ethyl]oxy}phenyl)methyl]-3,4-dihydroquinazoline-2-carboxamide], the inhibition at 1 µM turned out to be 97%.

Regarding `O=C(NCc1cccc(OCCSc2nc[nH]n2)c1)c1nc2ccc(F)cc2c(=O)[nH]1` [Example 3, 6-fluoro-4-oxo-N-[(3-{[2-(1H-1,2,4-triazol-3-ylthio)ethyl]oxy}phenyl)methyl]-3,4-dihydroquinazoline-2-carboxamide], the inhibition at 1 µM is 98%.

With `COc1ccc2nc(C(=O)NCc3cccc(OCCSc4nc[nH]n4)c3)[nH]c(=O)c2c1` [Example 4, 6-(methyloxy)-4-oxo-N-[(3-{[2-(1H-1,2,4-triazol-3-ylthio)ethyl]oxy}phenyl)methyl]-3,4-dihydroquinazoline-2-carboxamide], the inhibition at 1 µM worked out at 99%.

For `O=C(NCc1cccc(OCCSc2nc[nH]n2)c1)c1nc2ccc(Cl)cc2c(=O)[nH]1` [Example 5, 6-chloro-4-oxo-N-[(3-{[2-(1H-1,2,4-triazol-3-ylthio)ethyl]oxy}phenyl)methyl]-3,4-dihydroquinazoline-2-carboxamide], the inhibition at 1 µM was 97%.

For `Cc1ccc2nc(C(=O)NCc3cccc(OCCSc4nc[nH]n4)c3)[nH]c(=O)c2c1` [Example 6, 6-methyl-4-oxo-N-[(3-{[2-(1H-1,2,4-triazol-3-ylthio)ethyl]oxy}phenyl)methyl]-3,4-dihydroquinazoline-2-carboxamide], the inhibition at 1 µM is 97%.

In the case of `Nc1ccc2nc(C(=O)NCc3cccc(OCCSc4nc[nH]n4)c3)[nH]c(=O)c2c1` [Example 7, 6-amino-4-oxo-N-[(3-{[2-(1H-1,2,4-triazol-3-ylthio)ethyl]oxy}phenyl)methyl]-3,4-dihydroquinazoline-2-carboxamide], the inhibition at 1 µM was 97%.

Take `O=C(NCc1cccc(OCCSc2nc[nH]n2)c1)c1nc2ccc(F)c(F)c2c(=O)[nH]1` [Example 8, 5,6-difluoro-4-oxo-N-[(3-{[2-(1H-1,2,4-triazol-3-ylthio)ethyl]oxy}phenyl)methyl]-3,4-dihydroquinazoline-2-carboxamide]: the inhibition at 1 µM was found to be 99%.

As to `Cc1cccc2nc(C(=O)NCc3cccc(OCCSc4nc[nH]n4)c3)[nH]c(=O)c12` [Example 9, 5-methyl-4-oxo-N-[(3-{[2-(1H-1,2,4-triazol-3-ylthio)ethyl]oxy}phenyl)methyl]-3,4-dihydroquinazoline-2-carboxamide], the inhibition at 1 µM turned out to be 98%.

`O=C(NCc1cccc(OCCSc2nc[nH]n2)c1)c1nc2cccc(F)c2c(=O)[nH]1` [Example 10, 5-fluoro-4-oxo-N-[(3-{[2-(1H-1,2,4-triazol-3-ylthio)ethyl]oxy}phenyl)methyl]-3,4-dihydroquinazoline-2-carboxamide]: the inhibition at 1 µM amounted to 98%.

Turning to `O=C(NCc1cccc(OCCSc2nc[nH]n2)c1)c1nc2sccc2c(=O)[nH]1` [Example 11, 4-oxo-N-[(3-{[2-(1H-1,2,4-triazol-3-ylthio)ethyl]oxy}phenyl)methyl]-3,4-dihydrothieno[2,3-d]pyrimidine-2-carboxamide], the inhibition at 1 µM is 97%.

Turning to `Cc1cc2c(=O)[nH]c(C(=O)NCc3cccc(OCCSc4nc[nH]n4)c3)nc2s1` [Example 13, 6-methyl-4-oxo-N-[(3-{[2-(1H-1,2,4-triazol-3-ylthio)ethyl]oxy}phenyl)methyl]-3,4-dihydrothieno[2,3-d]pyrimidine-2-carboxamide], the inhibition at 1 µM amounted to 97%.

Take `Cc1sc2nc(C(=O)NCc3cccc(OCCSc4nc[nH]n4)c3)[nH]c(=O)c2c1C` [Example 14, 5,6-dimethyl-4-oxo-N-[(3-{[2-(1H-1,2,4-triazol-3-ylthio)ethyl]oxy}phenyl)methyl]-3,4-dihydrothieno[2,3-d]pyrimidine-2-carboxamide]: the inhibition at 1 µM came to 98%.

Turning to `N#Cc1ccc2nc(C(=O)NCc3cccc(OCCCSc4nc[nH]n4)c3)[nH]c(=O)c2c1` [Example 15, 6-cyano-4-oxo-N-[(3-{[3-(1H-1,2,4-triazol-3-ylthio)propyl]oxy}phenyl)methyl]-3,4-dihydroquinazoline-2-carboxamide], the inhibition at 1 µM came out at 98%.

In the case of `N#Cc1ccc2nc(C(=O)NCc3cccc(OCCCCSc4nc[nH]n4)c3)[nH]c(=O)c2c1` [Example 17, 6-cyano-4-oxo-N-[(3-{[4-(1H-1,2,4-triazol-3-ylthio)butyl]oxy}phenyl)methyl]-3,4-dihydroquinazoline-2-carboxamide], the inhibition at 1 µM was found to be 97%.

With `O=C(NCc1ccnc(OCCSc2nc[nH]n2)c1)c1nc2ccccc2c(=O)[nH]1` [Example 19, 4-oxo-N-[(2-{[2-(1H-1,2,4-triazol-3-ylthio)ethyl]oxy}pyridin-4-yl)methyl]-3,4-dihydroquinazoline-2-carboxamide], the inhibition at 1 µM came to 93%.

As to `N#Cc1ccc2nc(C(=O)NCc3ccnc(OCCSc4nc[nH]n4)c3)[nH]c(=O)c2c1` [Example 20, 6-cyano-4-oxo-N-[(2-{[2-(1H-1,2,4-triazol-3-ylthio)ethyl]oxy}pyridin-4-yl)methyl]-3,4-dihydroquinazoline-2-carboxamide], the inhibition at 1 µM was 89%.

Take `Cc1csc2nc(C(=O)NCc3ccnc(OCCSc4nc[nH]n4)c3)[nH]c(=O)c12` [Example 21, 5-methyl-4-oxo-N-[(2-{[2-(1H-1,2,4-triazol-3-ylthio)ethyl]oxy}pyridin-4-yl)methyl]-3,4-dihydrothieno[2,3-d]pyrimidine-2-carboxamide]: the inhibition at 1 µM was found to be 100%.

Regarding `O=C(NCc1ccnc(OCCCc2nc[nH]n2)c1)c1nc2ccccc2c(=O)[nH]1` [Example 22, 4-oxo-N-[(2-{[3-(1H-1,2,4-triazol-3-yl)propyl]oxy}pyridin-4-yl)methyl]-3,4-dihydroquinazoline-2-carboxamide], the inhibition at 1 µM came out at 95%.

As for `N#Cc1ccc2nc(C(=O)NCc3ccnc(OCCCc4nc[nH]n4)c3)[nH]c(=O)c2c1` [Example 23, 6-cyano-4-oxo-N-[(2-{[3-(1H-1,2,4-triazol-3-yl)propyl]oxy}pyridin-4-yl)methyl]-3,4-dihydroquinazoline-2-carboxamide], the inhibition at 1 µM stood at 96%.

With `Cc1csc2nc(C(=O)NCc3ccnc(OCCCc4nc[nH]n4)c3)[nH]c(=O)c12` [Example 24, 5-methyl-4-oxo-N-[(2-{[3-(1H-1,2,4-triazol-3-yl)propyl]oxy}pyridin-4-yl)methyl]-3,4-dihydrothieno[2,3-d]pyrimidine-2-carboxamide], the inhibition at 1 µM was found to be 93%.

Take `N#Cc1ccc2nc(C(=O)NCc3cccc(OCCOc4nc[nH]n4)c3)[nH]c(=O)c2c1` [Example 25, 6-cyano-4-oxo-N-[(3-{[2-(1H-1,2,4-triazol-3-yloxy)ethyl]oxy}phenyl)methyl]-3,4-dihydroquinazoline-2-carboxamide]: the inhibition at 1 µM was 97%.

For `O=C(NCc1cccc(OCCOc2nc[nH]n2)c1)c1nc2scc(-c3ccco3)c2c(=O)[nH]1` [Example 28, 5-furan-2-yl-4-oxo-N-[(3-{[2-(1H-1,2,4-triazol-3-yloxy)ethyl]oxy}phenyl)methyl]-3,4-dihydrothieno[2,3-d]pyrimidine-2-carboxamide], the inhibition at 1 µM was 96%.

With `N#CCc1csc2nc(C(=O)NCc3cccc(OCCOc4nc[nH]n4)c3)[nH]c(=O)c12` [Example 29, 5-(cyanomethyl)-4-oxo-N-[(3-{[2-(1H-1,2,4-triazol-3-yloxy)ethyl]oxy}phenyl)methyl]-3,4-dihydrothieno[2,3-d]pyrimidine-2-carboxamide], the inhibition at 1 µM was determined as 98%.

`O=C(NCc1cccc(COCc2nc[nH]n2)c1)c1nc2ccccc2c(=O)[nH]1` [Example 30, 4-oxo-N-[(3-{[(1H-1,2,4-triazol-3-ylmethyl)oxy]methyl}phenyl)methyl]-3,4-dihydroquinazoline-2-carboxamide]: the inhibition at 1 µM amounted to 96%.

On to `N#Cc1ccc2nc(C(=O)NCc3cccc(COCc4nc[nH]n4)c3)[nH]c(=O)c2c1` [Example 31, 6-cyano-4-oxo-N-[(3-{[(1H-1,2,4-triazol-3-ylmethyl)oxy]methyl}phenyl)methyl]-3,4-dihydroquinazoline-2-carboxamide], for which the inhibition at 1 µM was 97%.

On to `N#Cc1ccc2nc(C(=O)NCc3cccc(NC(=O)CCc4nc[nH]n4)c3)[nH]c(=O)c2c1` [Example 32, 6-cyano-4-oxo-N-[(3-{[3-(1H-1,2,4-triazol-3-yl)propanoyl]amino}phenyl)methyl]-3,4-dihydroquinazoline-2-carboxamide], for which the inhibition at 1 µM was found to be 98%.

Take `N#Cc1ccc2nc(C(=O)NCc3cccc(CNC(=O)Cc4nc[nH]n4)c3)[nH]c(=O)c2c1` [Example 34, 6-cyano-4-oxo-N-[(3-{[(1H-1,2,4-triazol-3-ylacetyl)amino]methyl}phenyl)methyl]-3,4-dihydroquinazoline-2-carboxamide]: the inhibition at 1 µM worked out at 90%.

For `N#Cc1ccc2nc(C(=O)NCc3cccc(CNC(=O)c4nc[nH]n4)c3)[nH]c(=O)c2c1` [Example 36, 6-cyano-4-oxo-N-[(3-{[(1H-1,2,4-triazol-3-ylcarbonyl)amino]methyl}phenyl)methyl]-3,4-dihydroquinazoline-2-carboxamide], the inhibition at 1 µM turned out to be 97%.
